Columns and labels:
[1] = target: T1, Recombinant GST-Tie2 (Homo sapiens, UniProt Q02763); assay: Tie2 Fluorescence Polarization Kinase Activity Assay (TIE2-FP); format: biochemical; conditions: activated Tie2, 200 μM ATP
T1 construct: GST
Protocol: Tie2 Fluorescence Polarization Kinase Activity Assay: (TIE2-FP)
Activation of Recombinant Tie2 Activation:
Recombinant GST-Tie2 was activated by incubating the enzyme in 20 mM Tris-HCl, pH 7.5, 12 mM MgCl2, 100 mM NaCl, 20 μM sodium vanidate, 1 mM DT and 300 μM ATP at room temperature for 2 hours. The activation mixture was then passed through a NAP-25 desalting column (Pharmacia Biotech cat. no. 17-0852-O2) to remove the free ATP. The activated enzyme was stored as aliquots at −80° C. in 20 mM Tris-HCl, pH 7.5 and 100 mM NaCl.
The final assay conditions were 50 mM HEPES, pH 7.5, 5% DMSO (when screening compounds), 200 μM ATP, 5 mM MgCl2, 1 mM DTT, 50 μM sodium vanidate, 1 nM activated enzyme, and 200 μM peptide. IC50's of compounds were measured under subsaturating ATP (200 μM) and varing concentrations of activated Tie2 and peptide substrate (RFWKYEFWR-OH; MW 1873 Da, TFA salt). Panvera Anti-phosphotyrosine antibody (Cat#P2840) and PTK Green Tracer (Cat#P2842) were used to detect the phosphorylated peptide. Polarization was measured on a TECAN Polarion in 138-second cycles for 30 minutes at room temperature. IC50's were then determined from the % polarization using normal calculation methods.

[2] = target: T2, GST-VEGFR2 (Homo sapiens, UniProt P35968); assay: VEGF-R2 Enzyme Assay (VEGF-E), LANCE method; format: biochemical; conditions: GST-VEGFR2, 75 μM ATP, peptide phosphorylation
T2 construct: GST-VEGFR2, baculovirus expressed recombinant constructs of the intracellular domains of human TIE2 tagged by GST; made in house
Excerpt: VEGF-R2 Enzyme Assay VEGF-E)
The VEGF enzyme assay used the LANCE method (Wallac) and GST-VEGFR2, baculovirus expressed recombinant constructs of the intracellular domains of human TIE2 tagged by GST. The method measured the ability of the purified enzymes to catalyse the transfer of the γ-phosphate from ATP onto tyrosine residues in a biotinylated synthetic peptide, (biotin-aminohexyl-EEEEYFELVAKKKK-NH2). This peptide phosphorylation was detected using the following procedure: GST-VEGFR2 was incubated for 40-60 mins at room temperature with 75 μM ATP, 5 mM MgCl2, 0.1 mM DTT, 0.1 mg/mL BSA and the test compound (diluted from a 10 mM stock in DMSO for desired concentration) in 100 mM HEPES buffer. The reaction was stopped by the addition of EDTA (final concentration 50 mM). Streptavidin linked-APC (allophycocyanin, Molecular Probe) and Europium-labeled anti-phosphorylated tyrosile antibody (Wallac) were then added at the final concentration of 15 nM and 1 nM, respectively. The APC signal was measured using an ARVO multilabel counter (Wallac Berthold, Japan). The percent inhibition of activity was calculated relative to blank control wells. The concentration of test compound that inhibits 50% of activity (IC50) was interpolated using nonlinear regression (Levernberg-Marquardt) and the equation, γ=Vmax (1−x/(K+x))+Y2, where “K” was equal to the IC50. The IC50 values were converted to pIC50 values, i.e., −log IC50 in Molar concentration.

[3] = tested on: Human umbilical cord endothelial cells (HUVEC); assay: VEGF-Driven Cellular Proliferation Assay: BrdU Incorporation Assay (VEGF-C); format: cell-based
Protocol: VEGF-Driven Cellular Proliferation Assay: BrdU Incorporation Assay (VEGF-C)
Human umbilical cord endothelial cells (HUVEC, Clonetics, CC2519) were passaged in Type I collagen-coated 100-mm petridishes in EGM-MV medium (Clonetics, CC3125) at 37 C in a humidified 5% CO2, 95% air incubator. (HUVEC passaged more than 6 times in vitro were discarded and not subjected to assaying.) The cells were harvested using trypsin/EDTA, counted using a haemocytometer and plated at 5000 cells/well in a Type I-collagen coated 96-well plate (Becton Dickinson, 354407) in M199 medium (Gibco BRL, 12340-030) containing 5% FBS (Hyclone, A 1115-L) and gentamicin (at 50 ug/ml, Gibco BRL). After incubation overnight at 37° C., the media were replaced with 100 ul of M199 serum-free medium containing compounds at various concentrations with 0.6% DMSO and gentamicin. The compounds were diluted in serum-free M199 medium from 10 mM stock solutions prepared in 100% DMSO. After a 30 min incubation at 37° C. the cells were fed with 100 ul of serum-free M199 medium containing gentamicin, 0.2% culture-grade bovine serum albumin (BSA, Sigma A1993) and 20 ng/ml of VEGF (R&D systems, 293-VE) or 0.6 ng/ml of basic FGF (R&D systems, 233-FB), and cultured at 37° C. for another 24 h. The cells were pulsed with bromodeoxyuridine (BrdU at 10 μM in serum-free M199) at 37° C. for an additional 24 h. The incorporation of BrdU into the proliferating HUVEC were analyzed using BrdU Cell Proliferation ELISA (Roche Molecular Biochemicals, 1647229) according to the manufacturer's protocols. The optical density at 450 nm was measured with a multilabel counter (ARVO SX, Wallac). The percent inhibition of cell growth was calculated relative to blank control wells. The concentration of test compound that inhibits 50% of cell growth (IC50) was interpolated using nonlinear regression (Levernberg-Marquardt) and the equation, γ=Vmax (1−x/(K+x))+Y2, where “K” was equal to the IC50. The IC50 values were converted to pIC50 values, i.e., −log IC50 in Molar concentration.

T2 sequence (P35968 786-1356 limits assumed): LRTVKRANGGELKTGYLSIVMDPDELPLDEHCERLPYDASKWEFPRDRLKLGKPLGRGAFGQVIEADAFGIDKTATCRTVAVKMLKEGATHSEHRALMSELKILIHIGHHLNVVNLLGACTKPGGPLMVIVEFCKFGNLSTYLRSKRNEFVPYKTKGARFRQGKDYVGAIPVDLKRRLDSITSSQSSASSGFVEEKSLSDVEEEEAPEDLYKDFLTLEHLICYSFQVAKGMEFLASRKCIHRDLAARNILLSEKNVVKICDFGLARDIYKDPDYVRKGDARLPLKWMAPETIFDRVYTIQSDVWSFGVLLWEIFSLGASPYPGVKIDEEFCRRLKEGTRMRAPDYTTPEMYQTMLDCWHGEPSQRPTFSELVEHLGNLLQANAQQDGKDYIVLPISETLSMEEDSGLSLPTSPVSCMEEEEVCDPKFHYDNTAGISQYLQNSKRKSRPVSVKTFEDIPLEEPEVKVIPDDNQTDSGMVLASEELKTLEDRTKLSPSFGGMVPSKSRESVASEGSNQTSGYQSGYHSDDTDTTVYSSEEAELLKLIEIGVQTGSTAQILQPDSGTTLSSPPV
T1 sequence (Q02763 770-1124 limits assumed): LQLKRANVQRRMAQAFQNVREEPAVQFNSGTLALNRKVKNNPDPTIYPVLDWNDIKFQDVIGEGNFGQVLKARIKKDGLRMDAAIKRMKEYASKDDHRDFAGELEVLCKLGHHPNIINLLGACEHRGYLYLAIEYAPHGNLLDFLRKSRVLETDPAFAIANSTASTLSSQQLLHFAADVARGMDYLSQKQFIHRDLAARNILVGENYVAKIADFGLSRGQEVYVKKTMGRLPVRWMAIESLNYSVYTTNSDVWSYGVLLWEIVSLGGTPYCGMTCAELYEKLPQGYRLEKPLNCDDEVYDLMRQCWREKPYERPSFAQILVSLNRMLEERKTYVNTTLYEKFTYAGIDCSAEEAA

Row | IC50 [1] [nM] | IC50 [2] [nM] | SMILES | IC50 [3] [nM]
1 | < 100 | < 100 | CN(c1ccc(NC(=O)Nc2cccc(F)c2)cc1)c1ccnc(Nc2cccc(S(N)(=O)=O)c2)n1 [Example 7, 3-({4-[[4-({[(3-Fluorophenyl)amino]corbonyl}amino)phenyl](methyl)amino]pyrimidin-2-yl}amino)benzenesulfonamide] | < 100
2 | < 100 | < 100 | CN(c1ccc(NC(=O)Nc2ccc(C(F)(F)F)cc2)cc1)c1ccnc(Nc2cccc(S(N)(=O)=O)c2)n1 [Example 2, 3-{[4-(methyl{4-[({[4-(trifluoromethyl)phenyl]amino}carbonyl)amino]phenyl}amino)pyrimidin-2-yl]amino}benzenesulfonamide] | < 100
3 | < 100 | < 100 | CCc1cccc(NC(=O)Nc2ccc(N(C)c3ccnc(Nc4ccc(S(N)(=O)=O)cc4)n3)cc2)c1 [Example 20, 4-({4-[[4-({[(3-ethylphenyl)amino]carbonyl}amino)phenyl](methyl)amino]pyrimidin-2-yl}amino)benzenesulfonamide] | < 100

Source: patent US7459455B2, “Pyrimidine compounds” (SmithKline Beecham Corporation, priority 2002, dated 2008)
